# According to patent publication US6852713B2, “Lactam derivatives and methods of their use” (Adolor Corporation, priority 2003, dated 2005):
# How the values were obtained:
# [1] = target: T1, cloned human κ opioid receptor (Homo sapiens, UniProt P41145); test: In vitro binding assay, inhibition of [3H]diprenorphine binding, kappa; settings: read-out: Ki against the human kappa receptor
# T1 construct: expressed in transfected cells
# Procedure: (§1) The potencies of the compounds of the invention were determined by testing the ability of a range of concentrations of each compound to inhibit the binding of the non-selective opioid antagonist, [^3H]diprenorphine, to the cloned human μ, κ, and δ opioid receptors, expressed in separate cell lines. IC50 values were obtained by nonlinear analysis of the data using GraphPad Prism version 3.00 for Windows (GraphPad Software, San Diego). Ki values were obtained by Cheng-Prusoff corrections of IC50 values.
# (§2) The receptor binding method was a modification of the method of K. Raynor et al. (Mol. Pharmnacol. 1994, 45, 330-334). […] The filters were rinsed 4 times with 1 mL of cold 50 mM Tris HCl, pH 7.8 and radioactivity remaining on the filters determined by scintillation spectroscopy. Nonspecific binding was determined by the minimum values of the titration curves and was confirmed by separate assay wells containing 10 μM naloxone. Ki values were determined by Cheng-Prusoff corrections of IC50 values derived from nonlinear regression fits of 12 point titration curves using GraphPad Prism® version 3.00 for Windows (GraphPad Software, San Diego, Calif.).
# (§3) To determine the equilibrium dissociation constant for the inhibitors (Ki), radioligand bound (cpm) in the presence of various concentrations of test compounds was measured. […]
# cloned human a receptors = target: T2, cloned human a receptors (Homo sapiens, UniProt P41145); test: Stimulation of [35S]GTPγS binding to membranes (agonist potency); assay type: biochemical
# T2 construct: expressed in transfected cells
# T2 sequence (P41145 whole entry): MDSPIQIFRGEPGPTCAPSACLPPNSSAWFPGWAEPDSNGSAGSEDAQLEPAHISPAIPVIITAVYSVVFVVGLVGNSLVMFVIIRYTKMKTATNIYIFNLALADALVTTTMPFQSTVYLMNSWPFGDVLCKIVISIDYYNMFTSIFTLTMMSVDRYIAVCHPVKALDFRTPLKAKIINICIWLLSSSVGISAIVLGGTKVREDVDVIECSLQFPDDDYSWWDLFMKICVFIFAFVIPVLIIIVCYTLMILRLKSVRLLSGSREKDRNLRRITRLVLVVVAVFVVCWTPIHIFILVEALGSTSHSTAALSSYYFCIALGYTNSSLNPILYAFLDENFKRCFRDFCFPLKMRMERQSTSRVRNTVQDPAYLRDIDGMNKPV
# Procedure: The potencies of the agonists were assessed by their abilities to stimulate [^35S]GTPγS binding to membranes containing the cloned human a receptors.
# To determine the EC50 value, which was the concentration to give half-maximal stimulation of [^35S]GTPγS binding, the amount of [^35S]GTPγS bound in the presence of various concentrations of agonists was measured. The EC50 value was then determined.
# [2] = target: T3, cloned human μ opioid receptor (Homo sapiens, UniProt P35372); test: In vitro binding assay, inhibition of [3H]diprenorphine binding, mu; settings: kappa versus μ
# T3 construct: expressed in transfected cells
# T3 sequence (P35372 whole entry): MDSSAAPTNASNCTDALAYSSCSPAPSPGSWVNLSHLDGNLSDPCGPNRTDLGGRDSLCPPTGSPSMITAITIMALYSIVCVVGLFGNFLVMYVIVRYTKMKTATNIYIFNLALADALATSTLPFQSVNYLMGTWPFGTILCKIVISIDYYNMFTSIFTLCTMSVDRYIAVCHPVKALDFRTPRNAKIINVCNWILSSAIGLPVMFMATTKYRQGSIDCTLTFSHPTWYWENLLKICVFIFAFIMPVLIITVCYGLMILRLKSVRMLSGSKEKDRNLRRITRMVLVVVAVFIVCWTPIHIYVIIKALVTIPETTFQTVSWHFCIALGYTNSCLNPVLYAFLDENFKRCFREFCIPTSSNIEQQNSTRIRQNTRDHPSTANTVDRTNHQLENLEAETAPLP
# Procedure: as §1, §2, §3
# [3] = target: T4, cloned human δ opioid receptor (Homo sapiens, UniProt P41143); test: In vitro binding assay, inhibition of [3H]diprenorphine binding, delta; settings: kappa versus δ
# T4 construct: expressed in transfected cells
# T4 sequence (P41143 whole entry): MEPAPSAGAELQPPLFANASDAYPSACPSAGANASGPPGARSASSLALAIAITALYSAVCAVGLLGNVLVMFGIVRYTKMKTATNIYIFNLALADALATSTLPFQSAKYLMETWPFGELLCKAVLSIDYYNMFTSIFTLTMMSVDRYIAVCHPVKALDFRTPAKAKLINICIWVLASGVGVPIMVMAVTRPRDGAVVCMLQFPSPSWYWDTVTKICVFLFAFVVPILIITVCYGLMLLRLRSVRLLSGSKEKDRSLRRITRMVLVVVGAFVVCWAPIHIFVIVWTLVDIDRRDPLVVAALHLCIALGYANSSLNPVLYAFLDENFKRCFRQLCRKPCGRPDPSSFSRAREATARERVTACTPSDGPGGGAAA
# Procedure: as §1, §2, §3
# [4] = test system: formalin-induced flinching; test: In vivo formalin-induced nociception assay; design: species or system male Sprague-Dawley rats; settings: dose of 100 μg, i.paw
# From the text: Administration of formalin into the paw results in a localized inflammation and a pain response that is moderate in intensity and continuous in duration. Unlike many other assays of nociception, the formalin assay measures tonic pain that is a result of tissue injury, and therefore is a model which is more relevant to clinical pain states in humans (see Tjolsen et al., Pain 51: 5-17, 1992). In the rat the response to formalin-induced pain consists of spontaneous flinching behavior, characterized by paw lifting and paw shaking, and a rapid vibration of the paw after drawing it under the body. […] The early or acute phase lasts from 0-5 minutes post-formalin and is followed by a quiescent period lasting approximately 15 minutes. The tonic phase occurs from 20-35 minutes following formalin injection and is the interval where the number of flinching responses is maximal. […]
# Inflammation is induced by subcutaneous injection of […] of a 5% formalin solution into the dorsal surface of the right hind paw of male Sprague-Dawley rats weighing 70-90 g. Injections of drug are given into the dorsal surface of the paw prior to formalin injection, and flinching behavior is quantitated by counting the number of responses that occur during the tonic phase of pain, lasting from 20-35 min after formalin injection. […]
# [5] = test system: acetic acid-induced writhing; test: Acetic acid-induced writhing; assay type: in vivo, male CF-1 mice; settings: Mus musculus, po; administered orally; read-out: ED50, block of acetic acid-induced writhing
# Procedure: Injection of acetic acid into the peritoneal cavity is used as the noxious stimulus, and the number of writhing responses that occur in response to acetic acid are counted in order to quantif the response to pain.
# The writhing assay is adapted from the procedure originally described by Taber et al. (J. Pharmacol. Exp. Ther. 169: 29-38,1986), using male CF-1 mice weighing 20-25 g. Animals are treated with various doses of drugs prior to the administration of an i.p. injection of 0.6% acetic acid solution. Mice are then placed into observation chambers and the number of writhing responses, as defined by a full hind limb extension and retraction, are recorded.
# The mean number of writhing responses is calculated for vehicle-treated control mice, and the percent inhibition (% I) of writhing is calculated for each mouse that is treated with drug using the following formula: % I=100×(mean control writhing responses−individual test responses)(mean control writhing responses) (f) Hyperalgesia Induced by Tape Stripping
# T1 sequence (P41145 whole entry): as the sequence (P41145 whole entry) above
smiles,measurement,setting,value
"O=C1C(c2ccc(Cl)c(Cl)c2)CC=CCN1[C@H](CN1CCCC1)c1ccccc1 (stereo partly drawn) [Example 9, 3-(3,4-Dichloro-phenyl)-1-(1-(S)-phenyl-2-pyrrolidin-1-yl-ethyl)-1,3,4,7-tetrahydro-azepin-2-one]",Ki,[1],1 nM
same,EC50,cloned human a receptors,2.5 nM
same,selectivity versus the human μ receptor,[2],> 100 ×
same,selectivity versus the human δ receptor,[3],> 100 ×
same,% A (percent antagonism of formalin-induced flinching),[4],> 80%
same,ED50,[5],< 30 mg/kg
